# In paper PMC4376002 (Frontiers in Bioengineering and Biotechnology, 2015):
# How the values were obtained:
# human FKBP12 = human FKBP12 (Homo sapiens, UniProt P62942); experiment: biochemical
# Mip of L. pneumophila = Mip of L. pneumophila (Legionella pneumophila subsp. pneumophila, UniProt Q5ZXE0); experiment: biochemical; format: biochemical
# [1] = tested on: L. pneumophila Corby (WT); experiment: microbe, parasite or virus in culture; format: cell-based, Legionella pneumophila; settings: for MIC: Legionella pneumophila, 48 h, read-out: WT MIC, growth in YEB, 10 to 100 μM, 37°C, 2 days; for influence on the viability of wild type L. pneumophila: liquic culture
# [2] = tested on: L. pneumophila Corby in differentiated THP-1 macrophages; format: cell-based, Legionella pneumophila; settings: compound added 2 h post infection, cfu/ml 24 h post infection; for effect on bacterial replication in THP-1 cells: up to 100 μM; for concentration at which suppression of bacterial replication in THP-1 cells starts: 12.5 to 100 μM tested
# [3] = tested on: Mip-like protein of Burkholderia pseudomallei (BpML1); settings: ref Norville et al., 2011; read-out: IC50-value toward BpML1; cited from earlier work
# [4] = tested on: Yersinia pseudotuberculosis; format: cell-based; settings: LB medium, data not shown
# [5] = tested on: Pseudomonas aeruginosa PA01; format: cell-based
# [6] = tested on: Salmonella enterica subsp. Enterica; format: cell-based
# Klebsiella aerogenes = format: cell-based
# Escherichia coli K12 = format: cell-based
# Staphylococcus aureus = format: cell-based
# [7] = growth in YEB, 10 to 100 μM, 37°C, 2 days
# Chain of human FKBP12 (P62942 whole entry): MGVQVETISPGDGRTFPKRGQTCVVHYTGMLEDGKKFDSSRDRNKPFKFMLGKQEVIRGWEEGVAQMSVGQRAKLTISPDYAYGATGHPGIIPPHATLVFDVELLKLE
# Chain of Mip of L. pneumophila (Q5ZXE0 21-233 limits assumed): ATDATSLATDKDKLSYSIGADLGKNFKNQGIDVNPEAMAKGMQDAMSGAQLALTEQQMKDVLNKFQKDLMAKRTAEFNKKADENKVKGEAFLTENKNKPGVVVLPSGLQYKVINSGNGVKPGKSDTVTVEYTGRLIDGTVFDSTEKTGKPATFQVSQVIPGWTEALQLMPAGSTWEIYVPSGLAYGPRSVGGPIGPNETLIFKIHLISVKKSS
Compound,IC50 (human FKBP12),IC50 (Mip of L. pneumophila),MIC [1],"WT Inhibition [1, 7]",influence on the viability of wild type L. pneumophila ([1]; 10 to 100 μM),also measured
C[C@@H]1CC([C@H](O)CC2CC(=O)N(CC(=O)N(C)C(C)(C)C)C(=O)C2)C(=O)[C@@H](C)C1 (some centres unmarked) [MT_30.9],36.1 ± 4.1 µM,31.7 ± 7.4 µM,30 µM,,,fold less effective than MT_30.32 in the protease coupled PPIase-assay (Mip of L. pneumophila): about 18 fold; effect on bacterial replication in THP-1 cells [2]: no effect
C[C@@H]1CC([C@H](O)CC2CC(=O)N(CC(=O)NC34CC5CC(CC(C5)C3)C4)C(=O)C2)C(=O)[C@@H](C)C1 (some centres unmarked) [MT_30.8],0.4 ± 0.04 µM,8.5 ± 2.1 µM,,- (no inhibition of growth at the highest tested concentration of 100 μM),no influence,
CC1CC(C)C(=O)C(C(O)CC2CC(=O)N(CC(=O)NC34CC5(C)CC(C)(CC(O)(C5)C3)C4)C(=O)C2)C1 (centres unmarked) [MT_30.79],0.22 ± 0.02 µM,4.9 ± 0.9 µM,,- (no inhibition of growth at the highest tested concentration of 100 μM),no influence,IC50-value for Mip relative to FKBP12 (fold higher; FKBP12 inhibited x-fold better) (Mip of L. pneumophila): about 25 fold
C[C@@H]1CC([C@H](O)CC2CC(=O)N(CC(=O)NC34CC5CC(CC(C5)C3)C4)C(=O)C2)[C@@H](O)[C@@H](C)C1 (some centres unmarked) [MT_30.93],0.9 ± 0.05 µM,16.3 ± 2.6 µM,≥ 30 µM,,,
CCOC(=O)CN1C(=O)CC(CC(O)C2CC(C)CC(C)C2=O)CC1=O (centres unmarked) [Cycloheximide-N-ethylethanoate],,,,,,IC50 [3]: 6.5 ± 1 µM
"CO[C@H]1C[C@@H]2CC[C@@H](C)[C@@](O)(O2)C(=O)C(=O)N2CCCC[C@H]2C(=O)O[C@H]([C@H](C)C[C@@H]2CC[C@@H](O)[C@H](OC)C2)CC(=O)[C@H](C)/C=C(\C)[C@@H](O)[C@@H](OC)C(=O)[C@H](C)C[C@H](C)/C=C/C=C/C=C/1C [Rapamycin, reference compound]",,,≥ 40 µM,,,"WT MIC [1, 7]: 40 µM"
C[C@@H]1CC([C@H](O)CC2CC(=O)N(CC(=O)NC34CC5CC(CC(C5)C3)C4)C(=O)C2)[C@H](O)[C@@H](C)C1 (some centres unmarked) [MT_30.92],1 ± 0.1 µM,12.6 ± 1.4 µM,≥ 30 µM,,,
CCC12CC3CC(C1)CC(NC(=O)CN1C(=O)CC(C[C@@H](O)C4C[C@@H](C)C[C@H](C)C4=O)CC1=O)(C3)C2 (some centres unmarked) [MT_30.51],0.19 ± 0.06 µM,5.6 ± 1.1 µM,≥ 30 µM,,,IC50-value for Mip relative to FKBP12 (fold higher; FKBP12 inhibited x-fold better) (Mip of L. pneumophila): about 25 fold; concentration at which suppression of bacterial replication in THP-1 cells starts [2]: 50 µM; effect on bacterial replication in THP-1 cells [2]: effectively suppressed bacterial replication; cytotoxicity to THP-1 cells (THP-1 cells): without having cytotoxic side effects
C[C@@H]1CC([C@H](O)CC2CC(=O)N(CC(=O)NC(C)(C)C)C(=O)C2)C(=O)[C@@H](C)C1 (some centres unmarked) [MT_30.3],,33.8 ± 8.6 µM,,- (no inhibition of growth at the highest tested concentration of 100 μM),no influence,
C[C@@H]1CC([C@H](O)CC2CC(=O)N(CC(=O)NC34CC5CC(CC(O)(C5)C3)C4)C(=O)C2)C(=O)[C@@H](C)C1 (some centres unmarked) [MT_30.38],1.2 ± 0.1 µM,21.8 ± 3.3 µM,,- (no inhibition of growth at the highest tested concentration of 100 μM),no influence,
CC1CC(C)C(=O)C(C(O)CC2CC(=O)N(CC(=O)NC34CC5CC(C)(CC(C)(C5)C3)C4)C(=O)C2)C1 (centres unmarked) [MT_30.32],0.18 ± 0.05 µM,1.7 ± 0.2 µM,≥ 30 µM,,,IC50-value for Mip relative to FKBP12 (fold higher; FKBP12 inhibited x-fold better) (Mip of L. pneumophila): 10 fold; effect on growth of Y. pseudotuberculosis [4]: none of the tested strains were affected in their growth; effect on growth of P. aeruginosa PA01 [5]: none of the tested strains were affected in their growth; effect on growth of S. enterica subsp. enterica [6]: none of the tested strains were affected in their growth; effect on growth of K. aerogenes (Klebsiella aerogenes): none of the tested strains were affected in their growth; effect on growth of E. coli K12 (Escherichia coli K12): none of the tested strains were affected in their growth; effect on growth of S. aureus (Staphylococcus aureus): none of the tested strains were affected in their growth; concentration at which suppression of bacterial replication in THP-1 cells starts [2]: 50 µM; effect on bacterial replication in THP-1 cells [2]: effectively suppressed bacterial replication; cytotoxicity to THP-1 cells (THP-1 cells): without having cytotoxic side effects
